Entries after “also recorded” stand apart in the source; their conditions may differ. *: point of attachment. Biotin = O=C1N[C@H]2[C@H](CS[C@H]2CCCCC(=O)*)N1

For assay [1], the target named is T1, CBP in MV411 human AML cells (Homo sapiens, UniProt Q92793).
T1 construct: endogenous in cells; host or cells: MV411 human AML cells (lysate)
In words: Streptavidin affinity purification (pull-down) of CBP with biotinylated peptides, Western blot. The assay is classed as binding. As to conditions: AML cell lysates, competition with non-biotinylated peptide. As to the method: Western blot analysis. Cells were lysed in RIPA buffer (Thermo Fisher) supplemented with a protease inhibitor mix comprised of AEBSF (0.5 mM concentration, Santa Cruz, SC-202041B), Bestatin (0.01 mM concentration, Fisher/Alfa Aesar, J61106-MD), Leupeptin (0.1 mM concentration, Santa Cruz, SC-295358B), and Pepstatin (0.001 mM concentration, Santa Cruz, SC-45036A). Lysates were mechanically disrupted using Covaris S220 adaptive focused sonicator, according to the manufacturer's instructions (Covaris, Woburn, Calif.). Lysates were cleared by centrifugation for 15 min at 18,000×g and clarified lysates were quantified using the bicinchoninic acid assay (Pierce). Clarified lysates (20 μg of protein) were resolved using sodium dodecyl sulfate-polyacrylamide gel electrophoresis, and electroeluted using the Immobilon FL PVDF membranes (Millipore, Billerica, Mass., USA). Membranes were blocked using the Odyssey Blocking buffer (Li-Cor, Lincoln, Nebr., USA). […] Blotted membranes were visualized using secondary antibodies conjugated to IRDye 800CW or IRDye 680RD (Goat anti-rabbit, 1:15,000, and goat anti-mouse, 1:15,000) and the Odyssey CLx fluorescence scanner, according to manufacturer's instructions (Li-Cor, Lincoln, Nebr., USA). […]
For orientation: Immunoblotting shows a protein as a band on a membrane.

Assay [2] concerns the target T2, purified CBP-KIX domain (Homo sapiens, UniProt Q92793).
T2 construct: Expression and purification of recombinant CBP KIX domain; GST (N, cleaved yes); made in house; host or cells: E. coli BL21(DE3)
In words: Microscale thermopheresis (MST) binding of FITC-conjugated peptides to purified KIX. As to conditions: FITC-conjugated peptide at fixed concentration, KIX 0.015 to 50 μM, n=3. The protocol: Expression and purification of recombinant CBP KIX domain. BL21(DE3) cells (Invitrogen) transformed with pGEX-KIX plasmid were induced at 37° C. with isopropyl β-D-1-thiogalactopyranoside for 3 hours. Cells were lysed in 50 mM Tris-HCl pH 7.3, 150 mM NaCl, 0.1% TWEEN-20, 1 mM DTT, 5 mM EDTA, supplemented with protease inhibitors described above and sonicated for ten minutes (15 sec on, 15 sec off, 40% amplitude) using the Misonix probe sonicator (Qsonica, Newtown, Conn.). Lysate was cleared by centrifugation for 1 h at 21,800×g at 4° C. Cleared lysate was incubated with 4 mL glutathione agarose resin slurry (GoldBio) for 1 h at 4° C. to capture GST-KIX. Resin was washed four times with 50 mM Tris-HCl pH 7.4, 150 mM NaCl. KIX domain was cleaved from GST by incubation of resin-bound GST-KIX with 160 U thrombin (GE Healthcare) overnight at room temperature. Resin was centrifuged at 500×g for 5 min. Supernatant containing cleaved KIX was collected and dialyzed at 4° C. against 50 mM MOPS pH 6.5, 50 mM NaCl, 10% glycerol, 1 μM tris-2-carboxyethylphosphine. KIX was purified using a linear gradient of 50 mM to 1 M NaCl by cation exchange chromatography using MonoS 5/50 GL column (GE Healthcare). Fractions containing purified KIX were dialyzed against 50 mM potassium phosphate pH 5.5, 150 mM NaCl, 10 μM tris-2-carboxyethylphosphine, 30% glycerol, and stored at −80° C. […]

Assay [3] concerns MOLM13 cells. In words: Confocal microscopy of intranuclear penetration of FITC-labelled peptide. The assay is classed as cell-based. To be noted: 50 nM peptide, 20 minutes, human AML cell line. As to the method:
Confocal microscopy. Live confocal imaging was performed using the Leica SP8 confocal microscope and 63× objective with 1 μm z-stack images. Cells were applied to a poly-L-lysine coated chambered Nunc Lab-tek II slide and incubated for 2 hours at 37° C. Prior to imaging, FITC-conjugated peptides were added to cell suspensions at a concentration of 50 nM. Cells were counter-stained using Hoechst 33342 and Mitotracker Red CMX ROS (MProbes) for 10 minutes at a final dilution of 1:10,000 prior to imaging.

Assay [4] deals with MOLM13, MV411, ML2, and HL60 cell lines. In words: Cell viability, live cell count by Trypan blue exclusion. The assay is classed as cell-based, human. To be noted: 10 μM and 20 μM every 48 hours for 6 days. The protocol: Cell culture. The human AML lines MV411, MOLM13, ML2, and HL60 were obtained from the American Type Culture Collection (ATCC, Manassas, Va., USA). Umbilical cord blood was obtained from the New York Blood Center. The identity of all cell lines was verified by STR analysis (Genetica DNA Laboratories, Burlington, N.C., USA) and absence of Mycoplasma sp. contamination was determined using Lonza MycoAlert (Lonza Walkersville, Inc., Walkersville, Md., USA). Cell lines were cultured in 5% CO2 in a humidified atmosphere at 37° C. in RPMI medium supplemented with 10% fetal bovine serum (FBS) and antibiotics (100 U/ml penicillin and 100 μg/ml streptomycin). Cell viability analysis. Cells were resuspended and plated at a concentration of 2×10^5 cells in 200 μL in 96-well tissue culture plates. Media with peptides was replaced every 48 hours. To assess the number of viable cells, cells were resuspended in PBS and 10 μL mixed in a 1:1 ratio with 0.4% Trypan Blue (Thermo Fisher) and counted using a hematocytometer (Hausser Scientific, Horsham, Pa., USA). To assess viability using an ATP-based assay, cell viability was assessed using the CellTiter-Glo Luminescent Viability assay, according to the manufacturer's instructions (Promega). Luminescence was recorded using the Infinite M1000Pro plate reader using integration time of 250 milliseconds (Tecan).

Assay [5] has as its target T3, MYB:CBP complex (Homo sapiens, UniProt Q92793).
T3 construct: endogenous in cells; host or cells: MV411 human AML cells
Briefly: Dissociation of MYB:CBP complex in AML cells (co-immunoprecipitation). The assay is classed as cell-based. As to the method:
Co-immunoprecipitation analysis. 7.5 μg of indicated antibodies were conjugated to 1 mg M-270 Epoxy-coated magnetic beads (Invitrogen) according to manufacturer's instructions. 1×10^7 MV411 cells were collected and washed in cold PBS. Washed cell pellets were resuspended in 350 μL cold lysis buffer (50 mM Tris-HCl pH 7.4, 150 mM NaCl, 1 mM EDTA, 1 mM DTT, 0.5% Triton X-100, supplemented with protease inhibitors described above) and incubated on ice for 10 min. Cells were mechanically disrupted using the Covaris […] adaptive focused sonicator at 50 W peak power, 10% duty cycle, 200 cycles per burst at 4° C. for 300 sec. Lysate was clarified by centrifugation for 15 min at 18,000×g at 4° C. Supernatant (cleared lysate) was diluted in 1.05 mL dilution buffer (50 mM Tris-HCl, 150 mM NaCl, 1 mM EDTA, 1 mM DTT, 10% glycerol, supplemented with protease inhibitors described above for a total volume of 1.4 mL. Diluted lysate was added to 1 mg beads, and immunoprecipitation proceeded for 3 h at 4° C. with rotation. Beads were then washed with lysis buffer twice. Proteins were eluted in 20 μL EB buffer (Invitrogen) for 5 min at room temperature, and eluate was neutralized with 2 μL 1M Tris pH 11. Samples were prepared for Western blot by addition of Laemmli buffer with 50 mM DTT and incubation at 95° C. for 5 min. Presence of MYB and CBP was identified by Western blot as described above.

T1 sequence (Q92793 whole entry): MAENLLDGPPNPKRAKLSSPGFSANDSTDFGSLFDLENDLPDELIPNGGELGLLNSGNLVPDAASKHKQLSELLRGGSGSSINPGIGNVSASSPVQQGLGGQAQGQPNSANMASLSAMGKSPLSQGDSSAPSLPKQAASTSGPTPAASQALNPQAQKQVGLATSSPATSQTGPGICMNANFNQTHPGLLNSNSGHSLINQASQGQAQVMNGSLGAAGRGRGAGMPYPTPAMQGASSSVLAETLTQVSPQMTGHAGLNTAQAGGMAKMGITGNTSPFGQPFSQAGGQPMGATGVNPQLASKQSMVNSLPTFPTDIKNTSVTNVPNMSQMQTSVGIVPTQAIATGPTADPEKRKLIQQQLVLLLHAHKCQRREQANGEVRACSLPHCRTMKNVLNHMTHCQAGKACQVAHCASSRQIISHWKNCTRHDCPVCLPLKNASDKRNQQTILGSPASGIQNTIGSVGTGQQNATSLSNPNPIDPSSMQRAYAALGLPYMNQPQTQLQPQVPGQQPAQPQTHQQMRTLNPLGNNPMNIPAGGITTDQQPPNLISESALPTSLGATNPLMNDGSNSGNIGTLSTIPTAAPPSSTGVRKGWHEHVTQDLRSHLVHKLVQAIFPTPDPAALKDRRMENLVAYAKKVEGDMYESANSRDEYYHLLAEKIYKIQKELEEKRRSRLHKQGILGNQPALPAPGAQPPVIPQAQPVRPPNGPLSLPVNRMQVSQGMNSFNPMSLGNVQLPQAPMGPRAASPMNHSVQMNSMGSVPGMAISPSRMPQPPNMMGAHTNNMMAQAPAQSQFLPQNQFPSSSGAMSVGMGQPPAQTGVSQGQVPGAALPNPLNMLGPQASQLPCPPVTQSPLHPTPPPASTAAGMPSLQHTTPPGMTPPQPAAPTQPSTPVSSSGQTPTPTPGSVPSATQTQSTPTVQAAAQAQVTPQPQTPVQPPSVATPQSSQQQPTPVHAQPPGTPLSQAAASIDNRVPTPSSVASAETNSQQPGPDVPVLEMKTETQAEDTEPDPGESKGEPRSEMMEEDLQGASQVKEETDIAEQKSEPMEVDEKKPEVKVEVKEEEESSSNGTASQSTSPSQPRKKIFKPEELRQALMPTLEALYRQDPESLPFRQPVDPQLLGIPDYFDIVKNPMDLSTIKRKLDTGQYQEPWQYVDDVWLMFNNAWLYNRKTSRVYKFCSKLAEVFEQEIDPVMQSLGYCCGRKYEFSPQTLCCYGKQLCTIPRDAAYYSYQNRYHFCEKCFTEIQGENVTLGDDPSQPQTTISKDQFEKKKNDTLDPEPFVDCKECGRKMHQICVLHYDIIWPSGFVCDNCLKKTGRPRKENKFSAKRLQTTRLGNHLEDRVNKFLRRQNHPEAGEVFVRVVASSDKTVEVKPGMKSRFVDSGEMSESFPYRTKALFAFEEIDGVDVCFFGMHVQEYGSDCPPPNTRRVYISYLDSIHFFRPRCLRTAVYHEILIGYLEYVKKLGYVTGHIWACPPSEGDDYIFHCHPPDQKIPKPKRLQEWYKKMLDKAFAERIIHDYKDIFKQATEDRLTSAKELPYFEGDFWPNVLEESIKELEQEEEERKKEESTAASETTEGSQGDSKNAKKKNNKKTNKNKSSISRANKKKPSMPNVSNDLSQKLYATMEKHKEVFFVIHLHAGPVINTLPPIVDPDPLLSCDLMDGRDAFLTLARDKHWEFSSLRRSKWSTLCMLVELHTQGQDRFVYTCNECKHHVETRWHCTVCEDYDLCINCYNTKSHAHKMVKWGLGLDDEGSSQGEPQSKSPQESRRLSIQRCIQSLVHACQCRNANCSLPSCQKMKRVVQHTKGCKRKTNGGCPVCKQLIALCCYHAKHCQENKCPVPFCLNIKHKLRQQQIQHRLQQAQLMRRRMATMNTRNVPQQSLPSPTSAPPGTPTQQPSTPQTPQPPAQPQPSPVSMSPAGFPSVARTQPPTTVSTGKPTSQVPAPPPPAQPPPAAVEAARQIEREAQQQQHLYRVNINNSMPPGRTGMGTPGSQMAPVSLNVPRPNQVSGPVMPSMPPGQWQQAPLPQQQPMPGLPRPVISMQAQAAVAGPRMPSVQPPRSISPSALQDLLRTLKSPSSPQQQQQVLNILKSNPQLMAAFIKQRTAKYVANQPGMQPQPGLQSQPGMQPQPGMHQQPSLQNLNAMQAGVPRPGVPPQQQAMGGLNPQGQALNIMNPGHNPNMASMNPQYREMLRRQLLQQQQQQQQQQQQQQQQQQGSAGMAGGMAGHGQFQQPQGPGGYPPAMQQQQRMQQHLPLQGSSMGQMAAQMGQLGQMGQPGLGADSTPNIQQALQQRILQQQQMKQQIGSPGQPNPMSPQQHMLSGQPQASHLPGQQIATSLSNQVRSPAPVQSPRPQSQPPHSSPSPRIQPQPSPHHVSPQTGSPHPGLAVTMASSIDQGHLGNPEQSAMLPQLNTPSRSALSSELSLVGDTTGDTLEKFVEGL
T2 sequence (Q92793 587-666 limits assumed): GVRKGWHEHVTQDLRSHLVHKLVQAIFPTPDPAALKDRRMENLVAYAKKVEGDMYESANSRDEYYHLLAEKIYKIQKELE
T3 sequence (Q92793 2-2442 limits assumed, one chain of several): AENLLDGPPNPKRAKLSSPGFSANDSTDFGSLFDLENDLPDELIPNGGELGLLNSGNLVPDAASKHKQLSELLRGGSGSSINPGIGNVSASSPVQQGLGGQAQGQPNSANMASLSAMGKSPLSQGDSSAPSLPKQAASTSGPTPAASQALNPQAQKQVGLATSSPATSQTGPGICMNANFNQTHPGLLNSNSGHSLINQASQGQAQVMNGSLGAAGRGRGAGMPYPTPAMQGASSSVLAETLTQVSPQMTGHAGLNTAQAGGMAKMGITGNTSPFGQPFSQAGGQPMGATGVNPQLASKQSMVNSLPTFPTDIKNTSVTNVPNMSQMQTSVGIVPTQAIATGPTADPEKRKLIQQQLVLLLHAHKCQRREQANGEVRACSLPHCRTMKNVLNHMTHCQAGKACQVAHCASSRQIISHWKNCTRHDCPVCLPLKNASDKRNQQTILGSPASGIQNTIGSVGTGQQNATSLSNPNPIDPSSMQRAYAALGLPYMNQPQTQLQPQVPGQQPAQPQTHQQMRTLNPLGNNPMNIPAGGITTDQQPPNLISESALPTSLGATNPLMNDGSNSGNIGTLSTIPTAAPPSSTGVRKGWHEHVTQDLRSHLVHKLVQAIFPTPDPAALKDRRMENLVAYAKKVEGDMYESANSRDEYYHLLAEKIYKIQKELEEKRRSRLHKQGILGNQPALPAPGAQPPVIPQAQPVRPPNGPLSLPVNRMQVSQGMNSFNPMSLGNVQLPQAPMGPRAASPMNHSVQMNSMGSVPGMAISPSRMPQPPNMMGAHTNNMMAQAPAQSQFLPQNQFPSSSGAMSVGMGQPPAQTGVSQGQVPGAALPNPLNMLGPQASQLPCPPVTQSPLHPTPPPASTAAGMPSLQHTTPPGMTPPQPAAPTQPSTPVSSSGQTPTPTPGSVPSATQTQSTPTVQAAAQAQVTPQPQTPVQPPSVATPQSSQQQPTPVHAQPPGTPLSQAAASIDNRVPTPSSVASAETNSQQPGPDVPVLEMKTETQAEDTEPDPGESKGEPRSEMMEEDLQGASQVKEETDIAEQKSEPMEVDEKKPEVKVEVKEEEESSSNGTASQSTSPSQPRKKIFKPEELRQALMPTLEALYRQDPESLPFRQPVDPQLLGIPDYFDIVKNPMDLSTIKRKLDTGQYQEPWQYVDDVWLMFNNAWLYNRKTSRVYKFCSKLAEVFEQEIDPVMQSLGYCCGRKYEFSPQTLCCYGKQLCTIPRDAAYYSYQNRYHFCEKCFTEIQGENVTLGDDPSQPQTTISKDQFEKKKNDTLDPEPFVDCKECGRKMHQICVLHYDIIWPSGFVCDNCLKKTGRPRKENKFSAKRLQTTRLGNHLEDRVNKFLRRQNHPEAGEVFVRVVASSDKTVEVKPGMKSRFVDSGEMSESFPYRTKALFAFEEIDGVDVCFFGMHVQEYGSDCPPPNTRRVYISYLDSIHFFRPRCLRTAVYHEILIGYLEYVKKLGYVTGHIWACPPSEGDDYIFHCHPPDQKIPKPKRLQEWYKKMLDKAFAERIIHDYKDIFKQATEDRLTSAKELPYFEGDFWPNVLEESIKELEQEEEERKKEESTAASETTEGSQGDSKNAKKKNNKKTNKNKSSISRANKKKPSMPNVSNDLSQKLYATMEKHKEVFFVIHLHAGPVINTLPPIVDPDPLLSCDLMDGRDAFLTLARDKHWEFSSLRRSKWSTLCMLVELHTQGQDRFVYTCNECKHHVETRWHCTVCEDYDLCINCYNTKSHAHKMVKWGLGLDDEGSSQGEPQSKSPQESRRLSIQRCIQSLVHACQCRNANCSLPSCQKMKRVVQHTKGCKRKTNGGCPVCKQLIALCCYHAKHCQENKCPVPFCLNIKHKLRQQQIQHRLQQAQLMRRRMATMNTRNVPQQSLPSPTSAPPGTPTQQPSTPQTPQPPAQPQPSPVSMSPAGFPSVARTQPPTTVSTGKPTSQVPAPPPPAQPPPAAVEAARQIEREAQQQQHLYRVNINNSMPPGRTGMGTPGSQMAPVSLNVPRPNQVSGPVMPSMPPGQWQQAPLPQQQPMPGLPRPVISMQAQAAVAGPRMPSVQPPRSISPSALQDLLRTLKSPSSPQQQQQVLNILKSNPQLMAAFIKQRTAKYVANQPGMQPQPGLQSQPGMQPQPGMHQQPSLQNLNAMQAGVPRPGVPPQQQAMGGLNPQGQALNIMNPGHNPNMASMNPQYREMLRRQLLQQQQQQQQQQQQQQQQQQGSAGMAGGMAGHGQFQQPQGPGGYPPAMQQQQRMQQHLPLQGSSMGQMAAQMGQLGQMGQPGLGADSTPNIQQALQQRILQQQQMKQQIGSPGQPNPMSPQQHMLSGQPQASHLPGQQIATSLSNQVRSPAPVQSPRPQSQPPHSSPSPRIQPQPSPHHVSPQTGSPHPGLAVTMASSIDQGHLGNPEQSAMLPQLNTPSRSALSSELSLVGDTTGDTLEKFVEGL

Take “Biotin-YGRKKRRQRRRGGKRIKELELLLMSTENELK-NH2 [BIOMYB]”: the “binding to / pull-down of CBP” value in assay [1] is listed as “able to pull down CBP; also recorded: specific binding”.
On to FITC-AHA-YGRKKRRQRRR-NH2 [FITC-TAT], for which the “KD (apparent binding affinity to purified KIX)” value in assay [2] is “no interaction seen”. The “intranuclear penetration (FITC-Hoechst overlay)” value was “overlap of FITC and Hoechst in the nucleus” in assay [3]; “intranuclear penetration” in assay [3] (listed as SEQ ID NO:6).
Consider “[Ac]-KLGNETSMGLLELEKIGKGG-RRRQRRKKRGY-[NH2] [TG3, reference compound]”, for which, in assay [4], the “AML cell death (live cells on Day 6)” value was “inactive”. The “MYB:CBP complex in cells” value in assay [5] was “inactive”.
Take “acetyl-KLENETSMLLLELEKIRKGGRRRQRRKKRGYK-biotin-NH2 [RI-BIOMYB]”: the “binding to / pull-down of CBP” value in assay [1] was “specific binding”.
